Earlier results in patent US20110053889A1, “Prenatal and postnatal screening and treatment of critical monosaccharide deficiencies for neurologic and immunologic function” (priority 2008, published 2011).
Where two headings read alike, the source gives them in different places.

Legend:
[1] = for Estimated Safe Daily Dose (mg) in 68 kg human: 68 kg human (Gardiner, 2004); for Estimated Safe Daily Dose: based on ADME and safety data and margin-of-safety (Gardiner, 2004)
[2] = patient with LAD II (Marquardt et al., 1999)
[3] = oral 50-100 mg/kg body weight, healthy volunteers (Marquardt et al., 1999)
[4] = ingested (Martin et al., 1998)
[5] = radiolabeled injection (Martin et al., 1998)
E. coli [6] = conditions: topical solution applied to maternal vaginas prior to delivery; control 77% (Cox and Taylor, 1990)
E. coli [7] = conditions: injected, rats (Michaels et al., 1983)
[8] = oral 0.07-0.21 g/kg body weight, humans (Alton et al., 1997)
[9] = rats
[10] = oral single doses (Alton et al., 1997)
[11] = oral 1 gram, humans (Talent and Gracy, 1996)

For `C[C@H](O)[C@@H](O)[C@@H](O)[C@H](O)C=O` [Fucose, L-fucose], which “Estimated Safe Daily Dose (mg) in 68 kg human” value (“Estimated Safe Daily Dose (mg)” for short) [1] is on record?
The value was 34,000 mg.

What about the “Estimated Safe Daily Dose” value [1] of the same compound?
Its value is 500 mg/kg/day.

What about the “clinical outcome of oral supplementation” value [2] of the same compound?
Its value is “clinical disappearance of infections and fever”.

What about the clearance half-time [3] of the same compound?
The clearance half-time was 100 min.

What about the “time to peak serum fucose concentration” value [3] of the same compound?
The value was 1 h.

With `O=C[C@H](O)[C@@H](O)[C@@H](O)[C@H](O)CO` [Galactose, D-galactose] as the compound, how does the “Estimated Safe Daily Dose (mg)” value [1] read?
The value was 50,000 mg.

And the “Estimated Safe Daily Dose” value [1]?
The value was 735 mg/kg/day.

With `N[C@H]1C(O)O[C@H](CO)[C@@H](O)[C@@H]1O` (stereo partly shown) [Glucosamine, glucosamine] as the compound, how does the “fraction of the dose oxidized” value [4] read?
Its value is “about one-half”.

And the “protein-bound radioactivity in the form of sialic acid” value [5]?
Its value is 25-30%.

Which “Estimated Safe Daily Dose (mg)” value [1] does the source give for `O=C[C@H](O)[C@@H](O)[C@H](O)[C@H](O)CO` [Glucose, D-glucose] here?
Its value is 150,000 mg.

And the “Estimated Safe Daily Dose” value [1]?
Its value is 2,200 mg/kg/d.

Which results are given for `O=C[C@@H](O)[C@@H](O)[C@H](O)[C@H](O)CO` [Mannose, mannose]?
Estimated Safe Daily Dose (mg) in 68 kg human [1]: 53,000 mg; Estimated Safe Daily Dose [1]: 779 mg/kg/day; E. coli bacteremia in newborns (E. coli [6]): 25%; time to reduction of E. coli bacteriuria (E. coli [7]): ≤ 1 days; clearance half-time [8]: about 4 hours; time to peak blood mannose concentration [8]: approximately 90 minutes; increase of glycoprotein incorporation in organs ([9]; at 1-8 hours): 2- to 6 fold; time to absorption into the serum ([9]; oral, radiolabeled): ≤ 1 h; single dose that induces osmotic diarrhea [10]: > 200 mg/kg body wt

For `CC(=O)N[C@H]1C(O)O[C@H](CO)[C@@H](O)[C@@H]1O` (stereo partly shown) [N-acetylglucosamine], which “Estimated Safe Daily Dose (mg)” value [1] is on record?
Its value is 1,000 mg.

What about the “Estimated Safe Daily Dose” value [1] of the same compound?
The value was 15 mg/kg/day.

And the “time to significant rise in serum levels of GlcNAc” value [11]?
The value was at most 1 h.

For `CC(=O)N[C@H]1[C@H]([C@H](O)[C@H](O)CO)OC(O)(C(=O)O)C[C@@H]1O` (stereo partly shown) [Sialic Acid, N-acetylneuraminic acid], which “Estimated Safe Daily Dose (mg)” value [1] is on record?
Its value is 140 mg.

And the “Estimated Safe Daily Dose” value [1]?
Its value is 2 mg/kg/day.
